The source of these data is paper PMC2074783, “Metabolism and pharmacokinetics of the anti-tumour agent 2,3,5-trimethyl-6-(3-pyridylmethyl)1,4-benzoquinone (CV-6504)” (British Journal of Cancer, 1996).

The test system of data set [1] is MAC13 cells. The experiment in a line: Growth of MAC13 cells in vitro after 72 h. The format is cell-based, murine. The note with it: for Inhibition of the growth of MAC13 cells in vitro: concentrations up to 100 µM, 72 h. From the text: (§1) Bridsh Journal of Cancer (1996) 74, 1349-1353 ? 1996 Stockton Press All rights reserved 0007-0920/96 $12.00 Metabolism and pharmacokinetics of the anti-tumour agent 2,3,5- trimethyl-6-(3-pyridylmethyl) 1,4-benzoquinone (CV-6504) H J Hussey and M J Tisdale Pharmaceutical Sciences Institute, Aston University, Birmingham B4 7ET, UK. Summary 2,3,5-Trimethyl-6-(3-pyridylmethyl)1,4-benzoquinone (CV-6504) is an effective inhibitor of the growth of established murine adenocarcinomas (MACs) and is shortly to enter clinical investigation. When administered to mice bearing the MAC16 tumour, CV-6504 rapidly disappeared from the plasma and tissues and there was an accumulation of the sulphate and glucuronide metabolites. […] The concentration of glucuronide and sulphate metabolites in both tumour and liver decreased with time. […] Although the sulphate and glucuronide conjugates of CV-6504 were ineffective inhibitors of the growth of MAC13 cells in vitro at concentrations up to 100 µM, in vivo at a concentration of 50 mg kg-' day-' the conjugates produced a similar anti-tumour effect to CV-6504 at a concentration of 5 mg kg-} day-l. […] Using MAC13 cells ex vivo, CV-6504 inhibited conversion of arachidonic acid to 5-, 12- and 15- hydroxyeicosatetraenoic acids (HETE). The percentage reduction in formation of 12- and 15-HETE exceeded that of 5-HETE. Inhibition of HETE formation may be responsible for the anti-tumour activity of CV-6504. […] Our own studies have identified the 5-lipoxygenase inhibitor (Ohkawa et al., 1991a), 2,3,5-trimethyl-6-(3-pyridyl- methyl)1,4-benzoquinone (CV-6504), as an effective inhibitor of the growth of established murine adenocarcinomas (MAC) in vivo with a therapeutic index of at least 10 (Hussey et al., 1996). […] CV-6504 undergoes rapid reduction by two-electron donating enzymes, such as DT-diaphorase, and the resulting hydroquinone inhibits both 5-lipoxygenase activity and lipid peroxidation on the basis of its antioxidant ability (Ohkawa et al., 199 lb) by reducing the ferric iron in the active site of the enzyme to the ferrous (resting state). Studies on the metabolism of CV-6504 by mice, rats, dogs and monkeys indicate reduction of the quinone ring and subsequent conjugation to yield the 1- and 4-glucuronides and the corresponding sulphates (Takeda Chemical Co., personal communication). […] In the present study the tumour and tissue levels of CV- Correspondence: HJ Hussey Received 4 March 1996; revised 21 May 1996; accepted 29 May 1996 6504 and its glucuronide and sulphate metabolites have been determined after single and consecutive dosing of mice bearing the MAC16 adenocarcinoma. A comparison has also been made between CV-6504 and its glucuronide and sulphate metabolites on tumour growth and metabolism of AA along the lipoxygenase pathways with a view to establishing the mechanism of the anti-tumour effect. Material and methods Pure strain NMRI mice were obtained from our own breeding colony and were fed a rat and mouse breeding diet (Pilsbury's, Birmingham) and water ad libitum. Male animals weighing 20-25 g were transplanted subcutaneously with 1-2 mm3 fragments of the MAC16 or MAC13 tumours by trocar into the right flank. The experiments were initiated when the tumour volume, calculated from the formula: length x (width)2 2 was between 72 and 128 mm3. Tumour dimensions were measured by calipers. […]

Data set [2] has as its system conversion of arachidonic acid to HETEs in MAC13 cells. The experiment in a line: Lipoxygenase metabolites of arachidonate in MAC13 tumour cells ex vivo. The format is cell-based, murine.
From the text: as §1, with “calipers. Mice bearing the MAC13 tumour were subject to restricted randomisation into groups of nine to receive either CV-6504 (5 mg kg-') or the 1- or 4- glucuronide, or the 1- or 4-sulphate (50 mg kg-'). CV-6504 and the sulphate and glucuronide metabolites were supplied by Takeda Chemical Industries Ltd., Osaka, Japan and were administered p.o. daily in aqueous solution (0.1 ml). Control animals received water alone (0.1 ml).” for “calipers.”

Data set [3] deals with MAC13 tumour. As to the kind of experiment: Growth of the MAC13 tumour in vivo. More on the design: species or system NMRI mice. The note with it: 50 mg kg-1 daily p.o.; for Anti-tumour activity in comparison with the 1-glucuronide and 4-sulphate: MAC13 tumour, difference not significant.
From the text: as §1, with “calipers. Mice bearing the MAC13 tumour were subject to restricted randomisation into groups of nine to receive either CV-6504 (5 mg kg-') or the 1- or 4- glucuronide, or the 1- or 4-sulphate (50 mg kg-'). CV-6504 and the sulphate and glucuronide metabolites were supplied by Takeda Chemical Industries Ltd., Osaka, Japan and were administered p.o. daily in aqueous solution (0.1 ml). Control animals received water alone (0.1 ml).” for “calipers.”

The test system of data set [4] is MAC16 cells. The experiment in a line: Inhibition of the growth of MAC16 cells in vitro. In kind it is cell-based, murine. The note with it: Mus musculus, tissue culture.
Data set [5] is described as follows: Metabolism and tissue levels of [14C]CV-6504 in mice bearing the MAC16 tumour. The settings on record: male, NMRI, mouse, in vivo, 24 h. From the text:
Bridsh Journal of Cancer (1996) 74, 1349-1353 ? 1996 Stockton Press All rights reserved 0007-0920/96 $12.00 Metabolism and pharmacokinetics of the anti-tumour agent 2,3,5- trimethyl-6-(3-pyridylmethyl) 1,4-benzoquinone (CV-6504) H J Hussey and M J Tisdale Pharmaceutical Sciences Institute, Aston University, Birmingham B4 7ET, UK. Summary 2,3,5-Trimethyl-6-(3-pyridylmethyl)1,4-benzoquinone (CV-6504) is an effective inhibitor of the growth of established murine adenocarcinomas (MACs) and is shortly to enter clinical investigation. When administered to mice bearing the MAC16 tumour, CV-6504 rapidly disappeared from the plasma and tissues and there was an accumulation of the sulphate and glucuronide metabolites. […] The concentration of glucuronide and sulphate metabolites in both tumour and liver decreased with time. […] In the present study the tumour and tissue levels of CV- Correspondence: HJ Hussey Received 4 March 1996; revised 21 May 1996; accepted 29 May 1996 6504 and its glucuronide and sulphate metabolites have been determined after single and consecutive dosing of mice bearing the MAC16 adenocarcinoma. […] The experiments were initiated when the tumour volume, calculated from the formula: length x (width)2 2 was between 72 and 128 mm3. Tumour dimensions were measured by calipers. […]

For the molecule `Cc1c(C)c(OC2OC(C(=O)O)C(O)C(O)C2O)c(C)c(Cc2cccnc2)c1O` (stereo not shown) [CV-6504-4-glucuronide], in data set [1], the “Inhibition of the growth of MAC13 cells in vitro” value (shortened to “Inhibition”) is given as “ineffective”. Further, in data set [2] (100 µM, 30 min), the 5-HETE production result was “significantly reduced”, the 11-HETE production result is recorded as “significantly reduced” and the 12-HETE production entry is reported as “significantly reduced”. Moreover, the 15-HETE production result in data set [2] (100 µM, 1 h) was “significantly reduced”. In data set [3], the “Anti-tumour activity against MAC13 tumour in vivo compared with free CV-6504 at 5 mg kg-1 day-1 orally” value is given as “similar”; the “Anti-tumour activity in comparison with the 1-glucuronide and 4-sulphate” value is recorded as “slightly reduced”.

Turning to `CC1=C(C)C(=O)C(Cc2cccnc2)=C(C)C1=O` [CV-6504, 2,3,5-Trimethyl-6-(3-pyridylmethyl)1,4-benzoquinone], the IC50 in data set [1] (Mus musculus, MAC13, 72 h, read-out: IC50 for inhibition of growth of MAC13 cells in vitro) is 3000 nM. This molecule had an IC50 in data set [4] of 3000 nM. For the same molecule, the “percentage reduction in formation of 12- and 15-HETE relative to that of 5-HETE” value in data set [2] (10 µM, 30 min) is reported as “exceeded”. Moreover, in data set [2] (10 µM, 30 min, [3H]AA), the 5-HETE production result is reported as “significantly decreased”, the 11-HETE production result is given as “significantly decreased”, the 12-HETE production result was “significantly decreased” and the 15-HETE production entry was “significantly decreased”. In addition, in data set [2] (10 µM, 30 min, [3H]AA), the “total unmetabolised AA” value is given as “significantly decreased”. For the same molecule, in data set [5], the “concentration of free CV-6504 in the liver” value turned out to be 240 nM and the “concentration of free CV-6504 in the tumour” value came out at 3300 nM.

Consider `Cc1c(C)c(OS(=O)(=O)O)c(Cc2cccnc2)c(C)c1O` [CV-6504-1-sulphate], for which the “Inhibition” value in data set [1] was “ineffective”. For the same molecule, in data set [2] (100 µM, 30 min), the 12-HETE production result is “significantly reduced” and the 15-HETE production result is on record as “significantly reduced”. The 11-HETE production result in data set [2] (100 µM, 1 h) is on record as “significantly reduced”. Also, the 5-HETE production result in data set [2] (100 µM, 2 h) is reported as “significantly reduced”. In data set [3], the “Anti-tumour activity against MAC13 tumour in vivo compared with free CV-6504 at 5 mg kg-1 day-1 orally” value is “similar”; the “Anti-tumour activity in comparison with the 1-glucuronide and 4-sulphate” value is on record as “slightly reduced”.

As for `Cc1c(C)c(OC2OC(C(=O)O)C(O)C(O)C2O)c(Cc2cccnc2)c(C)c1O` (stereo not shown) [CV-6504-1-glucuronide], the “Inhibition” value in data set [1] is reported as “ineffective”. Besides, the “Anti-tumour activity against MAC13 tumour in vivo compared with free CV-6504 at 5 mg kg-1 day-1 orally” value in data set [3] is reported as “similar”.

Take `Cc1c(C)c(OS(=O)(=O)O)c(C)c(Cc2cccnc2)c1O` [4-sulphate]: the “Inhibition” value in data set [1] is “ineffective”. Moreover, the “Anti-tumour activity against MAC13 tumour in vivo compared with free CV-6504 at 5 mg kg-1 day-1 orally” value in data set [3] was “similar”.

By IC50 is commonly meant the concentration at which inhibition is half-maximal.
